Active and inactive are the calls of the source.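 How the source made its calls: active means clearly stronger inhibition of phosphomevalonate kinase than of the coupling enzymes alone in a parallel counterscreen; inactive means the rest.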
Target: phosphomevalonate kinase (Streptococcus pneumoniae D39)
Test: S. pneumoniae PMK inhibitor potency, dose response, biochemical, mevalonate pathway, coupling enzyme counter-screen (AID 549)
Details: PK/LDH coupled NADH absorbance 340 nm

outcome | Compound
inactive | CC(C)COC(=O)NCC12C=CC(O1)C1C(=O)N(c3ccc(Cl)cc3)C(=O)C12 (stereo not given)
inactive | Cc1noc(C)c1CSc1nnc(-c2ccncc2)n1-c1cccc(Cl)c1C
inactive | O=C(C1CCN(Cc2ccc(OCc3ccccc3)cc2)CC1)N1CCCC1
inactive | COc1ccc2[nH]cc(C(=O)CN3CCCC(C)C3)c2c1 (stereo not given)
inactive | CCOc1ccc2[nH]c(=O)c(CN(CCO)C(=O)c3ccc(Br)cc3)cc2c1
inactive | CCc1nn(C(C)C(=O)NCCc2ccc(OC)c(OC)c2)c(=O)c2cc3occc3n12 (stereo not given)
inactive | CCCOc1ccc(C2C(=O)N(C3CCCCC3)CC(=O)N2CCCOCC)cc1OC (stereo not given)
inactive | COCC(=O)N(C)c1nnc(-c2cnc(C)cn2)s1
inactive | CCOCCCNC(=O)C1CCN(S(=O)(=O)N2CC(C)CC(C)C2)CC1 (stereo not given)
inactive | COc1ccccc1CN(Cc1cc2cc(C)cc(C)c2[nH]c1=O)Cc1nnnn1CC1CCCO1 (stereo not given)
inactive | CCOC(=O)C(CCc1nnc(N)s1)C(=O)OCC
inactive | CC1(C)CC(C)(O)P(=O)(c2ccccc2)O1 (stereo not given)
inactive | CC(C)COC(=O)n1ccc(C(=O)N2CCCCC2)n1
inactive | CC(CN1CCN(C)CC1)OC(=O)c1ccc(Cl)cc1 (stereo not given)
inactive | Cc1cc(C)n2nc(SCc3cc(=O)n4c(C)cccc4n3)nc2n1
inactive | CCCOc1ccc(-c2nnn(CC(=O)Nc3cccc(C(=O)OC)c3)n2)cc1
inactive | CCn1c(COc2ccccc2C)nnc1SCC(=O)N1CCCCC1
inactive | Cc1csc(NC(=O)CN2CCCCCC2)n1
inactive | Cn1c(SCC(=O)NCc2ccco2)nc2ccccc2c1=O
inactive | COc1cccc2cc(C(=O)N3CCN(c4ccccc4F)CC3)c(=O)oc12
inactive | CCOC(=O)C1=C(NC(=O)c2ccc(Br)o2)Nc2ccccc2N=C1
inactive | CCc1ccc(OCc2nnc(SCC(=O)NCc3ccco3)o2)cc1

outcome | Compound
inactive | CN1CCc2c(sc3c2c(=O)n(-c2ccccc2)c2nnc(SCc4ccc(F)cc4)n32)C1
inactive | Cn1nc(CC(=O)Nc2ncc(Br)s2)c2ccccc2c1=O
inactive | CC(=O)N1CCN(c2nc3cc4c(cc3nc2NS(=O)(=O)c2ccccc2)OCCO4)CC1
inactive | O=C(c1ccc(CS(=O)(=O)Cc2ccc(Cl)cc2)o1)N1CCCC1
inactive | Cc1nonc1NC(=O)CSc1ccc(-c2ccccc2)nn1
inactive | COc1ccccc1-n1c(SCC(=O)N2CCCCC2)nnc1-c1ccccc1O
inactive | CCN1C(=O)/C(=C2/Sc3ccc(OC)cc3N2C)SC1=Nc1ccc(C(C)=O)cc1
inactive | COCCn1c(C)cc2c(c1=O)C(c1ccccc1F)C(C#N)=C(N)O2 (stereo not given)
inactive | COC(=O)c1cc(=O)nc2sccn12
inactive | Cc1ccc(S(=O)(=O)N2CCN(c3nc(C(C)C)c4c(c3C#N)CC(C)(C)OC4)CC2)cc1
inactive | CCc1nn(C(C)C(=O)NC(C)CCc2ccco2)c(=O)c2cc3occc3n12 (stereo not given)
inactive | N#CC(C(=O)NC1CCCCC1)c1nc2ccccc2nc1N1CCCCC1 (stereo not given)
inactive | Cc1nnc(SCC(=O)Nc2nsc(-c3ccccc3)n2)s1
inactive | CCN=c1sc(C(=O)NCCc2ccccc2)cc(=O)n1CC
inactive | Cn1nnnc1Sc1ncnc2scc(-c3ccc(F)cc3)c12
inactive | CCOc1cc(C(=O)NCc2nnc(SCC(=O)OC)n2C)cc(OCC)c1OCC
inactive | COCCNC(=O)c1ccc2c(c1)NC(=O)CS2
inactive | CCOc1ncccc1C(=O)OCc1cc(=O)n2c(n1)sc1ccccc12
inactive | NC(=O)CCN(Cc1ccccc1)S(=O)(=O)c1ccccc1
inactive | CC(=O)NC1N=C(C)N(c2ccccc2)C1=O (stereo not given)
inactive | O=C(NC1CC1)c1ccc2c(c1)ncn2C1CCCC1
inactive | CC(=O)N1CCC(N2CCN(c3ccccc3F)CC2)CC1

outcome | Compound
inactive | CCS(=O)(=O)N1CCC(C(=O)NCC2CCCO2)CC1 (stereo not given)
inactive | CCNC(=O)CN(c1ccc(C)cc1)S(=O)(=O)c1ccc(SC)cc1
inactive | CCOc1ccc2[nH]c(=O)c(C(c3nnnn3CC3CCCO3)N3CCc4ccccc4C3)cc2c1 (stereo not given)
inactive | Cc1nnc(SCc2ccccc2)n1N
inactive | CC1(C)CC(=O)C(C(C2=C(O)CC(C)(C)CC2=O)c2cccc(O)c2)C(=O)C1 (stereo not given)
inactive | CCOC(=O)C1=C(N)OC2=C(C(=O)CCC2)C1c1ccc(C)s1 (stereo not given)
inactive | Cc1ccc(C)c(N(CC(=O)NC2CCCC2)C(=O)CCCC(=O)Nc2ccccn2)c1
inactive | Cc1ccc(C(c2nnnn2CC2CCCO2)N2CCN(C(=O)c3ccco3)CC2)cc1 (stereo not given)
inactive | C=CCNC(=O)C1CCCN(S(C)(=O)=O)C1 (stereo not given)
inactive | CC(C)OC(=O)CN1C(=O)c2ccccc2C1=O
inactive | Cc1n[nH]c(=S)n(/N=C/c2ccccn2)c1=O
inactive | CC(=O)c1ccc(Oc2ncnc3sccc23)c(CN2CCOCC2)c1
inactive | CCOC(=O)c1c(NC(=O)c2cc(C3CC3)on2)sc2c1CCCC2
inactive | O=C(NCc1cccs1)C1CCCN(c2nc3ccccc3o2)C1 (stereo not given)
inactive | Cc1ccsc1C1C(C(=O)O)c2ccccc2C(=O)N1C (stereo not given)
inactive | O=C(CCN1C(=O)c2ccccc2C1=O)NC1=NCCS1
inactive | CCc1nnc(NC(=O)CSc2nnc(Cc3cccn3C)n2C)s1
inactive | CNS(=O)(=O)c1cccc(C(=O)OC2CCCCC2=O)c1 (stereo not given)
inactive | O=c1c(-c2ccccc2)c(O)c2cccc3c2n1CCC3
inactive | CC(=O)N1CCc2cc(S(=O)(=O)NC3CCCc4ccccc43)ccc21 (stereo not given)
inactive | CCn1c(SC(=O)NC2CCCCC2)nnc1-c1cccs1
inactive | CCCC(=O)Nc1cccc(NC(=O)CN2CCN(c3ccccc3OC)CC2)c1

outcome | Compound
inactive | CC12C=CC3(CN(Cc4ccccc4)C(=O)C3C1C(=O)NC1CC1)O2 (stereo not given)
inactive | COc1ccccc1CNC(=O)C1CCN(c2nc3ccccc3o2)CC1
inactive | O=C(NCC1CCCO1)C1CC(=O)N(C2CCCCCC2)C1 (stereo not given)
inactive | COc1ccc(NC(=O)N(C2CCCCC2)C(C)c2ccco2)c(OC)c1 (stereo not given)
inactive | CN(C)c1ccc(CNCCC2(O)CCOC(C)(C)C2)cc1 (stereo not given)
inactive | CC(C)OC(=O)C1C(=O)CC(C)(O)C(C(=O)OC(C)C)C1c1cccnc1 (stereo not given)
inactive | COc1cccc(CNC(=O)C2CCCN(c3nn4c(=O)cc(C)nc4s3)C2)c1 (stereo not given)
inactive | O=c1cc(O)c2c(=O)[nH]c(=O)n(-c3ccccc3)c2[nH]1
inactive | CC(=O)Nc1c(O)n(C)c2ccccc12
inactive | C=CCn1c(NCc2ccccc2)nc2ccccc21
inactive | CCOC(=O)c1cnc(SCC(=O)N2CCN(C(=O)c3ccco3)CC2)nc1N
inactive | O=C(O)CCS(=O)(=O)Cc1ccccc1F
inactive | COc1ccc(OC)c(NC(=O)CNC(=O)Cn2ccc3ccccc3c2=O)c1
inactive | CN1CCN(S(=O)(=O)c2cccc(S(=O)(=O)c3ccc(Cl)c(Cl)c3)c2)CC1
inactive | CC1(C)CC(=O)c2cc(OCC(=O)N3CCN(c4ccccc4F)CC3)ccc2O1
inactive | COc1ccc(CNC(=O)C2CCN(S(=O)(=O)N3CCOCC3)CC2)cc1
inactive | CCOc1cc(N2CCOCC2)c(OCC)cc1NC(=O)Cc1ccc(OC)c(OC)c1
inactive | CCC(=O)N(Cc1ccco1)c1nc(-c2ccccc2)cs1
inactive | O=C(Cc1cn2ccsc2n1)OCc1nc2ccccc2s1
inactive | Cc1cc(NCCCN2CCOCC2)n2nc(C)c(-c3ccc(F)cc3)c2n1
inactive | Cc1csc(NC(=O)C2CCC(C)(C(=O)O)C2(C)C)n1 (stereo not given)
inactive | CCOC(=O)c1ccccc1NCN1C(=O)CSC1=O

outcome | Compound
inactive | O=C(NCCCN1CCN(Cc2ccccc2)CC1)C1CCN(S(=O)(=O)N2CCCC2)CC1
inactive | COC(=O)c1nonc1NCn1nnc2ccccc21
inactive | COc1cc(-c2nnc(COc3ccc4ccccc4c3)o2)cc(OC)c1OC
inactive | COc1ccc(N2C(C)=CS/C2=C(/C#N)c2nnc(N3CCOCC3)n2-c2ccccc2)cc1
inactive | O=C(Nn1c(C2CC2)nc2ccccc2c1=O)c1ccco1
inactive | CN(C)c1ccc(-c2nc3ccccc3n2C)cc1
inactive | Cc1ccc(CN2CCN(C(=O)C3CCC3)CC2)cc1
inactive | OC1CCCN(Cc2ccc3c(c2)Cc2ccccc2-3)C1 (stereo not given)
inactive | COC(=O)c1cn(-c2ccccc2)nc1C(=O)OC
inactive | CCN(CC)CCSc1nc(O)c(C(C)C)c(=O)[nH]1
inactive | CCCCNc1nc2c(c(=O)n(C)c(=O)n2C)n1CCC
inactive | Cc1ccnc(N2CCC(C(=O)Nc3ccc(Oc4ccccc4)cc3)CC2)n1
inactive | CC(CC(=O)O)NCC1COc2ccccc2O1 (stereo not given)
inactive | O=C(COC(=O)CCc1c[nH]c(=O)[nH]1)Nc1ccccc1
inactive | COc1ccc(OCC(=O)N2CCN(c3nnc(-c4ccccc4)c4ccccc34)CC2)cc1
inactive | CCCN1CCN(CCCNC(=O)Cn2nc(-c3ccccc3)ccc2=O)CC1
inactive | CCN(CC)C(=O)C1CCCN(C/C(C)=C/c2ccccc2)C1 (stereo not given)
inactive | Cc1occc1C(=O)Nc1nnc(C(F)(F)F)s1
inactive | CS(=O)(=O)N(CC(=O)N1CCN(c2ccccc2)CC1)C1CCCCC1
inactive | O=C(NC1CCCCC1)C1CC(=O)N(c2ccc(Cl)cc2)C1 (stereo not given)
inactive | CCOc1ccc(CNC(=O)C2CCN(S(=O)(=O)N3CCCC3)CC2)cc1OC
inactive | c1cncc(C(c2nnnn2C2CCCC2)N2CCCC2)c1 (stereo not given)

Source: PubChem BioAssay AID549 (SRMLSC, 2006)
